According to US12551536B2, “Semaglutide in medical therapy” (Novo Nordisk A/S, priority 2017, dated 2026):

How the values were obtained:
[1] = 26-week clinical trial in adult patients with T2D: gastrointestinal adverse events incl. nausea; assay type: in vivo, human; details: on-treatment
Protocol: A 26-week, randomized, double-blind clinical trial was carried out with adult patients with T2D, HbA1c 7.0-10.0% (53-86 mmol/mol), and body mass index 24.0-40.0 kg/m^2 who were treated with diet and exercise±metformin. […] The primary endpoint was change in HbA1c from baseline to week 26. Key exclusion criteria were a history of chronic or idiopathic acute pancreatitis and moderate-to-severe renal impairment (estimated glomerular filtration rate <60 mL/min/1.73 m^2).
Trial drug administration: Following a 2-week screening period, patients received trial medication for 26 weeks, followed by a 7-week follow-up period. […] The trial was double blinded within (but not between) each dose level of semaglutide, liraglutide and placebo, as treatment was volume matched.

[2] = 52-week clinical trial in obese subjects without diabetes mellitus: gastrointestinal adverse events; assay type: in vivo, human; details: Lira 3.0 mg once daily s.c., on-treatment
Protocol: This trial was designed as a 52-week, randomised, double-blind, placebo-controlled, sixteen-armed, parallel group, multi-centre, multinational trial comparing once-daily subcutaneous administration of semaglutide in five different doses (ranging from 0.05 mg/day to 0.4 mg/day) with placebo in obese subjects without diabetes mellitus. […] The trial was double-blinded between active and placebo treatment. To ensure a sufficiently large sample of men, no more than 70% of the trial population was allowed to be women and the randomisation was stratified according to sex. Subjects were randomised in a balanced manner (6:1 active:placebo).
The primary endpoint was relative change from baseline in body weight (%) at 52 weeks. Key secondary endpoints included proportion of subjects with weight loss of ≥5% or ≥10% of baseline body weight at 52 weeks as well as change in body weight from baseline to 52 weeks. Supportive secondary safety endpoints also included gastrointestinal (GI) adverse events (i.e. nausea, vomiting, diarrhoea and constipation). During each site visit the individual subject was asked via open questions if they had experienced any medical problems since the last visit. All medical problems either observed by the site staff or the subject was reported as an adverse event and evaluated for severity and causality by the investigator. For this trial the subjects had site visits every 2 weeks for the first 20 weeks of the trial and afterwards site visits was performed every 4 weeks.
Subjects in all treatment arms including placebo received nutritional counselling and a calorie-reduced diet by a dietician or equivalent qualified delegate as well as physical activity counselling by a qualified person on a monthly basis beginning at the randomisation visit. The trial population consisted of a total of 957 subjects were randomised. A total of 777 subjects (81.2%) completed 52 weeks of treatment; 180 (18.8%) discontinued treatment prematurely with no obvious dose-dependent trend. Key inclusion criteria for this trial were: Male or female, age ≥18 years at the time of signing inform consent; body mass index (BMI)≥30.0 kg/m2 at the screening visit; and at least one unsuccessful weight loss attempt per investigator judgement. Key exclusion criteria for this trial were: A HbA1c≥6.5% at screening or diagnosed with type 1 or type 2 diabetes mellitus; Treatment with glucose lowering agent(s) within 90 days before screening; Screening calcitonin ≥50 ng/L (pg/mL); Personal or family history of medullary thyroid carcinoma or multiple endocrine neoplasia syndrome type 2; History of pancreatitis (acute or chronic); Obesity induced by endocrine disorders (e.g. Cushing Syndrome); Treatment with any medication within 90 days before screening that based on investigator's judgement may cause significant weight change; Previous surgical treatment for obesity (liposuction and/or abdominoplasty performed >1 year before screening is allowed); History of major depressive disorder within 2 years before randomisation; Any lifetime history of a suicidal attempt; and Female who is pregnant, breast-feeding or intends to become pregnant or is of childbearing potential and not using an adequate contraceptive method (adequate contraceptive measures as required by local regulation or practice).

[3] = Lira 0.3 mg once daily s.c., N 64
[4] = Lira 0.6 mg once daily s.c., N 64
[5] = Lira 1.2 mg once daily s.c., N 64
[6] = Lira 1.8 mg once daily s.c., N 65

SMILES: CCCCCCCCCCCCCCCC(=O)N[C@@H](CCC(=O)NCCCC[C@H](NC(=O)[C@H](C)NC(=O)[C@H](C)NC(=O)[C@H](CCC(N)=O)NC(=O)CNC(=O)[C@H](CCC(=O)O)NC(=O)[C@H](CC(C)C)NC(=O)[C@H](Cc1ccc(O)cc1)NC(=O)[C@H](CO)NC(=O)[C@H](CO)NC(=O)[C@@H](NC(=O)[C@H](CC(=O)O)NC(=O)[C@H](CO)NC(=O)[C@@H](NC(=O)[C@H](Cc1ccccc1)NC(=O)[C@@H](NC(=O)CNC(=O)[C@H](CCC(=O)O)NC(=O)[C@H](C)NC(=O)[C@@H](N)Cc1cnc[nH]1)[C@@H](C)O)[C@@H](C)O)C(C)C)C(=O)N[C@@H](CCC(=O)O)C(=O)N[C@@H](Cc1ccccc1)C(=O)N[C@H](C(=O)N[C@@H](C)C(=O)N[C@@H](Cc1c[nH]c2ccccc12)C(=O)N[C@@H](CC(C)C)C(=O)N[C@H](C(=O)N[C@@H](CCCNC(=N)N)C(=O)NCC(=O)N[C@@H](CCCNC(=N)N)C(=O)NCC(=O)O)C(C)C)[C@@H](C)CC)C(=O)O [Lira, liraglutide, reference compound]
- Gastrointestinal adverse events, % (percentage of patients experiencing at least one event) ([1]; Lira 0.3 mg once daily s.c.): 21.9%
- Gastrointestinal adverse events, E (number of events) ([1]; Lira 0.3 mg once daily s.c.): 25
- Nausea, % (percentage of patients experiencing at least one event) ([1]; Lira 0.3 mg once daily s.c.): 9.4%
- Nausea, E (number of events) ([1]; Lira 0.3 mg once daily s.c.): 7
- Gastrointestinal adverse events, Ne (number of patients experiencing at least one event) [1, 3]: 14
- Nausea, Ne (number of patients experiencing at least one event) [1, 3]: 6
- Gastrointestinal adverse events, % (percentage of patients experiencing at least one event) ([1]; Lira 0.6 mg once daily s.c.): 29.7%
- Gastrointestinal adverse events, E (number of events) ([1]; Lira 0.6 mg once daily s.c.): 62
- Nausea, % (percentage of patients experiencing at least one event) ([1]; Lira 0.6 mg once daily s.c.): 10.9%
- Nausea, E (number of events) ([1]; Lira 0.6 mg once daily s.c.): 11
- Gastrointestinal adverse events, Ne (number of patients experiencing at least one event) [1, 4]: 19
- Nausea, Ne (number of patients experiencing at least one event) [1, 4]: 7
- Gastrointestinal adverse events, % (percentage of patients experiencing at least one event) ([1]; Lira 1.2 mg once daily s.c.): 31.3%
- Gastrointestinal adverse events, E (number of events) ([1]; Lira 1.2 mg once daily s.c.): 40
- Nausea, % (percentage of patients experiencing at least one event) ([1]; Lira 1.2 mg once daily s.c.): 10.9%
- Nausea, E (number of events) ([1]; Lira 1.2 mg once daily s.c.): 11
- Gastrointestinal adverse events, Ne (number of patients experiencing at least one event) [1, 5]: 20
- Nausea, Ne (number of patients experiencing at least one event) [1, 5]: 7
- Gastrointestinal adverse events, % (percentage of patients experiencing at least one event) ([1]; Lira 1.8 mg once daily s.c.): 41.5%
- Gastrointestinal adverse events, E (number of events) ([1]; Lira 1.8 mg once daily s.c.): 81
- Nausea, % (percentage of patients experiencing at least one event) ([1]; Lira 1.8 mg once daily s.c.): 20.0%
- Nausea, E (number of events) ([1]; Lira 1.8 mg once daily s.c.): 18
- Gastrointestinal adverse events, Ne (number of patients experiencing at least one event) [1, 6]: 27
- Nausea, Ne (number of patients experiencing at least one event) [1, 6]: 13
- Gastrointestinal adverse events, Observed data, % (percentage of subjects with at least one event) [2]: 74.8%
- Nausea, % (percentage of subjects experiencing at least one event) ([2]; observed data): 44.7%
- Nausea, E (number of events) ([2]; observed data): 89
- Nausea, Ne (number of subjects experiencing at least one event) ([2]; observed data, N 103): 46
- Gastrointestinal adverse events, Observed data, Ne (number of subjects experiencing at least one event) ([2]; N 103): 77
